Experimental findings from patent US10155733B2, “N-aralkylcarbonyl-piperazine and -homopiperazine compounds and personal care compositions comprising the same” (Conopco, Inc., priority 2015, dated 2018) are described below.

The test system of the first series is human living skin equivalents.
Assay: not given
The series is classed as cell-based.
Details: not given
As for `O=C(N1CCN(CCCc2ccccc2)CC1)C(O)(c1ccccc1)C1CCCC1` (stereo not drawn) [Compound 7d], the “% Increase in Ki-67 stained positive cells over vehicle” value was found to be 127%.

In another series the target is human M3 receptor (Homo sapiens (Human), UniProt P20309). The series is described as follows: Muscarinic 3 receptor binding assay (3H-scopolamine displacement).
human M3 receptor, sequence (P20309 whole entry): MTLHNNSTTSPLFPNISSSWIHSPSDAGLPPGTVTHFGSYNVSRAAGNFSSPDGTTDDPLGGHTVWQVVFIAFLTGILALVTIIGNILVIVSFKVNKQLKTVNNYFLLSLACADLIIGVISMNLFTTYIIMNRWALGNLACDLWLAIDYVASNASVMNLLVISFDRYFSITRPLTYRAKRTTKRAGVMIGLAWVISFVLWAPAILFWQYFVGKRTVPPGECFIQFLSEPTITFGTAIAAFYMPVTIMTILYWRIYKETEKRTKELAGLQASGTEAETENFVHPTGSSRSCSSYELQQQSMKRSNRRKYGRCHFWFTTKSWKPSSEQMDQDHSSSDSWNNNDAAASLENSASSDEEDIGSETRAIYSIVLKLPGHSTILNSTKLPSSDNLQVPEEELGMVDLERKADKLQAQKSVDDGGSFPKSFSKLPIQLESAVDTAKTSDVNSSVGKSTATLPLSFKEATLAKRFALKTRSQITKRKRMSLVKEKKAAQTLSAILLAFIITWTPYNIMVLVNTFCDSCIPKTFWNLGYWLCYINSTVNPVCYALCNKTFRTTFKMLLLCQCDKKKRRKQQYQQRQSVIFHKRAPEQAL
Details: not given
How it is done: The muscarinic 3 receptor binding assay was adapted from Perkin Elmer. […] Atropine (Sigma-Aldrich, St. Louis, Mo.) was used as a positive control. […] The reaction mixtures were then added to matrix 96-well GFC filtration microtiter plates that had been previously pretreated with 0.5% polyethylimine (100 μL) for 4 h and filtered. The binding reactions were terminated by filtering through the GFC plates and washing & filtering with ice-cold phosphate saline buffer (5×100 μL). Once the filters were dry, microscint scintillation cocktail (100 μL) was added to each well, allowed to sit for 20 min and the plates analyzed using a TopCount scintillation counter. […] Curve fitting of % inhibition versus concentration using Excell software allowed determination of IC50 values for test compounds.
As usually defined, the IC50 is the concentration at which inhibition is half-maximal. Lower therefore signals higher potency. `O=C(N1CCN(CCc2ccccc2)CC1)C(O)(c1ccccc1)C1CCCC1` (stereo not drawn) [Compound 7f] displayed an IC50 of 4.7 µM.

Molecule `O=C(N1CCN(CC(O)c2ccccc2)CC1)C(O)(c1ccccc1)C1CCCC1` (stereo not drawn) [Compound 11] yielded an IC50 of 4.3 µM.

As for `O=C(C(c1ccccc1)C1CCCC1)N1CCN(CCc2ccccc2)CC1` (stereo not drawn) [Compound 7a], the half-inhibitory concentration (IC50) stood at 1.8 µM.

With `CC(Cc1ccc2c(c1)OCO2)CN1CCN(C(=O)C(O)(c2ccccc2)C2CCCC2)CC1` (stereo not drawn) [Compound 7i], the IC50 turned out to be 4.6 µM.

`O=C(N1CCN(CCCc2ccccc2)CC1)C(O)(c1ccccc1)C1CCCC1` (stereo not drawn) [Compound 7d]: the half-maximal inhibitory concentration (IC50) came to 0.063 µM.

Molecule `O=C(N1CCN(CCOc2ccccc2)CC1)C(O)(c1ccccc1)C1CCCC1` (stereo not drawn) [Compound 9c] displayed an IC50 of 1.2 µM.

In turn, `O=C(N1CCN(C/C=C/c2ccccc2)CC1)C(O)(c1ccccc1)C1CCCC1` (stereo not drawn) [Compound 7e] returned an IC50 of 0.195 µM.

Regarding `O=C(CN1CCN(C(=O)C(O)(c2ccccc2)C2CCCC2)CC1)c1ccccc1` (stereo not drawn) [Compound 9h], the 50% inhibitory concentration (IC50) was found to be 2.7 µM.

`COc1ccc(CCN2CCN(C(=O)C(O)(c3ccccc3)C3CCCC3)CC2)cc1` (stereo not drawn) [Compound 9d] displayed an IC50 of 0.357 µM.

Staying with this series, now noted: CHO cell membranes expressing human M3 receptor, 3H-scopolamine.
In turn, `CCCCCCN1CCN(C(=O)C(c2ccccc2)C2CCCC2)CC1` (stereo not drawn) [Compound 3d] yielded an IC50 of 7.9 µM.

The molecule `O=C(C(c1ccccc1)C1CCCC1)N1CCN(CCCc2ccccc2)CC1` (stereo not drawn) [Compound 7b] had an IC50 of 2.1 µM.

`O=C(C(c1ccccc1)C1CCCC1)N1CCN(CCC2CCCCC2)CC1` (stereo not drawn) [Compound 9a]: the half-maximal inhibitory concentration (IC50) amounted to 6 µM.

`O=C(C(c1ccccc1)C1CCCC1)N1CCN(C/C=C/c2ccccc2)CC1` (stereo not drawn) [Compound 7c]: the IC50 came to 0.599 µM.

`CN1CCN(C(=O)C(c2ccccc2)C2CCCC2)CC1` (stereo not drawn) [Compound 3b] returned an IC50 of 2.1 µM.

The molecule `CN1CCCN(C(=O)C(c2ccccc2)C2CCCC2)CC1` (stereo not drawn) [Compound 3f] came in with an IC50 of 0.409 µM.

For `CN1CCN(C(=O)C(c2ccccc2)C2CCCCC2)CC1` (stereo not drawn) [Compound 3a], the IC50 is 5.3 µM.

System in another series: not listed separately
Put plainly: pH measurements of test compound solutions. The series is classed as physicochemical.
Details: not given
As for the experimental part: Equimolar amounts of test compounds were used instead of weight % amounts to ensure a fair (molar-basis) comparison between test compounds. […] The pH of all test solutions was measured @ 22° C. using a Corning pH meter model 430 with a flat surface combo w/RJ electrode. The pH meter was calibrated using standard pH 7 & 12 buffers.
Turning to `O=C(N1CCCNCC1)C(O)(c1ccccc1)C1CCCC1` (stereo not drawn) [Compound 6j], the “Measured pH of solution” value was determined as 9.9.

For `O=C(N1CCNCC1)C(O)(c1ccccc1)C1CCCC1` (stereo not drawn) [Compound 6b], the “Measured pH of solution” value stood at 10.0.

Staying with this series, now noted: 79 mM (equimolar) in isopropyl alcohol/water, 22° C.
In the case of `CN1CCNCC1` [Compound 14], the “Measured pH of solution” value was 11.0.

Consider `CN1CCCNCC1` [Compound 15], for which the “Measured pH of solution” value came to 11.5.
